Patent publication US20240018161A1, “MODULATORS OF CYSTIC FIBROSIS TRANSMEMBRANE CONDUCTANCE REGULATOR” (VERTEX PHARMACEUTICALS INCORPORATED, priority 2020, published 2024)

molecular target: T1, CFTR-mediated short-circuit current in F508del/MF-HBE cells (Homo sapiens, UniProt P13569, DEL508-508); assay: HBE2 assay: Ussing chamber assay of CFTR-mediated short-circuit currents; format: cell-based
T1 construct: human bronchial epithelial (HBE) cells derived from CF subjects; endogenous in cells; host or cells: primary human bronchial epithelial cells from CF subjects (F508del/MF-HBE)
Protocol: 1. Ussing Chamber Assay of CFTR-Mediated Short-Circuit Currents
Ussing chamber experiments were performed using human bronchial epithelial (HBE) cells derived from CF subjects heterozygous for F508del and a minimal function CFTR mutation (F508del/MF-HBE) and cultured as previously described (Neuberger T, Burton B, Clark H, Van Goor F Methods Mol Biol 2011:741:39-54). After four days the apical media was removed, and the cells were grown at an air liquid interface for >14 days prior to use.
To isolate the CFTR-mediated short-circuit (ISC) current, F508del/MF-HBE grown on Costar® Snapwell™ cell culture inserts were mounted in an Ussing chamber and the transepithelial ISC was measured under voltage-clamp recording conditions (Vhold=0 mV) at 37° C. The basolateral solution contained (in mM) 145 NaCl, 0.83 K2HPO4, 3.3 KH2PO4, 1.2 MgCl2, 1.2 CaCl2, 10 Glucose, 10 HEPES (pH adjusted to 7.4 with NaOH) and the apical solution contained (in mM) 145 NaGluconate, 1.2 MgCl2, 1.2 CaCl2, 10 glucose, 10 HEPES (pH adjusted to 7.4 with NaOH) and 30 μM amiloride to block the epithelial sodium channel. Forskolin (20 μM) was added to the apical surface to activate CFTR, followed by apical addition of a CFTR inhibitor cocktail consisting of BPO, GlyH-101, and CFTR inhibitor 172 (each at 20 μM final assay concentration) to specifically isolate CFTR currents. The CFTR-mediated ISC (μA/cm^2) for each condition was determined from the peak forskolin response to the steady-state current following inhibition.
2. Identification of Corrector Compounds
The activity of the CFTR corrector compounds on the CFTR-mediated ISC was determined in Ussing chamber studies as described above. The F508del/MF-HBE cell cultures were either incubated with the corrector compounds at a range of concentrations in combination with 44 nM (6R,12R)-17-amino-12-methyl-6,15-bis(trifluoromethyl)-13,19-dioxa-3,4,18-triazatricyclo[12.3.1.12,5]nonadeca-1(18),2,4,14,16-pentaen-6-ol or were incubated with the corrector compounds at a single fixed concentration of 1 and 3 μM in combination with 44 nM (6R,12R)-17-amino-12-methyl-6,15-bis(trifluoromethyl)-13,19-dioxa-3,4,18-triazatricyclo[12.3.1.12,5]nonadeca-1(18),2,4,14,16-pentaen-6-ol for 18-24 hours at 37° C. and in the presence of […]. The concentration of corrector compounds with 44 nM (6R,12R)-17-amino-12-methyl-6,15-bis(trifluoromethyl)-13,19-dioxa-3,4,18-triazatricyclo[12.3.1.12,5]nonadeca-1(18),2,4,14,16-pentaen-6-ol during the 18-24 hours incubations was kept constant throughout the Ussing chamber measurement of the CFTR-mediated ISC to ensure compounds were present throughout the entire experiment.

T1 sequence (P13569 with tags, fused parts or gaps DEL508-508): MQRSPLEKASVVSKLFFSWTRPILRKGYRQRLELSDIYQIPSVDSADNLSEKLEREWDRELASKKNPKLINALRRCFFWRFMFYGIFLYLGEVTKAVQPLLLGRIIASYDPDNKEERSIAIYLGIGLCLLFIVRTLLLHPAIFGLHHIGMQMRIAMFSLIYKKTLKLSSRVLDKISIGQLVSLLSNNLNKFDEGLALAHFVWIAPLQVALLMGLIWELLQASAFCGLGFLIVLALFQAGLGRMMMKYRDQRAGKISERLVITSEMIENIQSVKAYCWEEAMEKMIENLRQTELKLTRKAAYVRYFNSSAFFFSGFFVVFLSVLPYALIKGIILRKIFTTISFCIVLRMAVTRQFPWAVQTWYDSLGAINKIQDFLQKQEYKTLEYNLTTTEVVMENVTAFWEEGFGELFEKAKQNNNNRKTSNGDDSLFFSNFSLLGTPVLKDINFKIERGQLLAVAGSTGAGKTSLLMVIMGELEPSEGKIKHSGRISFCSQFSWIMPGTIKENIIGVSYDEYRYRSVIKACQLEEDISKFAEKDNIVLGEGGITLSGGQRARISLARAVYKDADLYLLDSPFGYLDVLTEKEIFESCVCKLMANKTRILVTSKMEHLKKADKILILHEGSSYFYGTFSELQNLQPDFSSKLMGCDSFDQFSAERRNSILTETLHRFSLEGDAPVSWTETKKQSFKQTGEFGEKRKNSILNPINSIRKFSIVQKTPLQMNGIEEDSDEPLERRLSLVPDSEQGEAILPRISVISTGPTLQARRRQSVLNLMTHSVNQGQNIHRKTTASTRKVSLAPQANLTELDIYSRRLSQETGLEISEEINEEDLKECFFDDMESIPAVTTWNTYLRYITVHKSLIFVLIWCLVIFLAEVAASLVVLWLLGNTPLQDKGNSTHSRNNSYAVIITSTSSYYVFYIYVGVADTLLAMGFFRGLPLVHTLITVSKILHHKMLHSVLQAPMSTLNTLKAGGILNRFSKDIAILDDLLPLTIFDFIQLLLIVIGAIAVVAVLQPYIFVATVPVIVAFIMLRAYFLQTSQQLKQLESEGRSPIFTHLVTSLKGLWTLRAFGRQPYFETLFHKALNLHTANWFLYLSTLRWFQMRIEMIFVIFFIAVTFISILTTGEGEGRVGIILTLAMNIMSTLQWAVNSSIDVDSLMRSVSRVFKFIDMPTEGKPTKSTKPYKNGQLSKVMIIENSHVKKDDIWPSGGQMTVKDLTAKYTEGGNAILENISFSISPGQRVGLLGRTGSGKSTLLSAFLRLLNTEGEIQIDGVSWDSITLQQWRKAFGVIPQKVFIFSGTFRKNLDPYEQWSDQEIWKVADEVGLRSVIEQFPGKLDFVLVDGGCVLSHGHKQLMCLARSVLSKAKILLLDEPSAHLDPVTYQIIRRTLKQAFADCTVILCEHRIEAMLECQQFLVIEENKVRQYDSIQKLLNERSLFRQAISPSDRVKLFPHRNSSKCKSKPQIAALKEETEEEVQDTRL

SMILES | HBE2 Activity at 3 μM (%) | activation at 3 µM [%]
Cc1cccc(C)c1-c1cc2nc(n1)NS(=O)(=O)c1cccc(c1)C(=O)N1[C@@H](c3ncc(OC(C)C)cn3)CCC[C@@H](CC(C)C)[C@H]1CO2 (single isomer, unassigned) [Compound 398, 14-(2,6-Dimethylphenyl)-8-isobutyl-4-(5-isopropoxypyrimidin-2-yl)-18,18-dioxo-11-oxa-18λ^6-thia-3,15,17,24-tetrazatetracyclo[17.3.1.112,16.03,9]tetracosa-1(22),12,14,16(24),19(23),20-hexaen-2-one] | +++ (+++ is >60%) | 
Cc1cccc(C)c1-c1cc2nc(n1)NS(=O)(=O)c1cccc(c1)C(=O)N1[C@@H](c3cncc(N(C)C4CCC4)n3)CCC[C@@H](CC(C)C)[C@H]1CO2 (single isomer, unassigned) [Compound 401, 4-[6-[cyclobutyl(methyl)amino]pyrazin-2-yl]-14-(2,6-dimethylphenyl)-8-isobutyl-18,18-dioxo-11-oxa-18λ^6-thia-3,15,17,24-tetrazatetracyclo[17.3.1.112,16.03,9]tetracosa-1(22),12,14,16(24),19(23),20-hexaen-2-one] | ++ (++ is 30-60%) | 
Cc1cccc(C)c1-c1cc2nc(n1)NS(=O)(=O)c1cccc(c1)C(=O)N1[C@@H](c3ncc(OC(C)C)cn3)CCC[C@@H](O2)[C@H]1CC(C)C (single isomer, unassigned) [Compound 406, 12-(2,6-Dimethylphenyl)-21-isobutyl-20-(5-isopropoxypyrimidin-2-yl)-8,8-dioxo-15-oxa-8λ^6-thia-1,9,11,22-tetrazatetracyclo[14.4.1.13,7.110,14]tricosa-3,5,7(23),10(22),11,13-hexaen-2-one] | +++ (+++ is >60%) | 
Cc1cccc(C)c1-c1cc2nc(n1)NS(=O)(=O)c1cccc(c1)C(=O)N1[C@@H](c3ncc(OC(C)C)cn3)CCC[C@@H](O2)[C@H]1CC(C)C (single isomer, unassigned) [Compound 407, 12-(2,6-dimethylphenyl)-21-isobutyl-20-(5-isopropoxypyrimidin-2-yl)-8,8-dioxo-15-oxa-8λ^6-thia-1,9,11,22-tetrazatetracyclo[14.4.1.13,7.110,14]tricosa-3,5,7(23),10(22),11,13-hexaen-2-one] | + (+ is <30+) | 
Cc1cccc(C)c1-c1cc2nc(n1)NS(=O)(=O)c1cccc(c1)C(=O)N1[C@@H](c3cncc(N(C)C4CCC4)n3)CC[C@H](O2)[C@H]1CC(C)C (single isomer, unassigned) [Compound 411] |  | 30 to 60
Cc1cccc(C)c1-c1cc2nc(n1)NS(=O)(=O)c1cccc(c1)C(=O)N1[C@H](CCC[C@@H]1C(=O)NCc1ccccc1)CO2 [Compound 415] |  | 30 to 60
Cc1cccc(C)c1-c1cc2nc(n1)NS(=O)(=O)c1cccc(c1)C(=O)N1[C@@H](CCCC[C@@H]1c1ncc(OCc3ccccc3)cn1)CO2 [Compound 419] |  | 30 to 60
Cc1cccc(C)c1-c1cc2nc(n1)NS(=O)(=O)c1cccc(c1)C(=O)N1[C@@H](CCCC[C@@H]1c1ncc(OCc3ccccc3)cn1)CO2 [Compound 420] | + (+ is <30+) | 
Cc1cccc(C)c1-c1cc2nc(n1)NS(=O)(=O)c1cccc(c1)C(=O)N1[C@@H](c3ncc(OC(C)C)cn3)CCC[C@@H](O2)[C@H]1CC(C)C [Compound 421] | +++ (+++ is >60%) | 

Second part, the molecule after the results:

HBE2 Activity at 3 μM (%) | activation at 3 µM [%] | SMILES
+ (+ is <30+) |  | Cc1cccc(C)c1-c1cc2nc(n1)NS(=O)(=O)c1cccc(c1)C(=O)N1[C@@H](c3ncc(OC(C)C)cn3)CCC[C@@H](CC(C)C)[C@H]1CO2 (single isomer, unassigned) [Compound 399, 14-(2,6-dimethylphenyl)-8-isobutyl-4-(5-isopropoxypyrimidin-2-yl)-18,18-dioxo-11-oxa-18λ^6-thia-3,15,17,24-tetrazatetracyclo[17.3.1.112,16.03,9]tetracosa-1(22),12,14,16(24),19(23),20-hexaen-2-one]
+++ (+++ is >60%) |  | Cc1cccc(C)c1-c1cc2nc(n1)NS(=O)(=O)c1cccc(c1)C(=O)N1[C@@H](c3cncc(N(C)C4CCC4)n3)CCC[C@@H](CC(C)C)[C@H]1CO2 (single isomer, unassigned) [Compound 400, 4-[6-[Cyclobutyl(methyl)amino]pyrazin-2-yl]-14-(2,6-dimethylphenyl)-8-isobutyl-18,18-dioxo-11-oxa-18λ^6-thia-3,15,17,24-tetrazatetracyclo[17.3.1.112,16.03,9]tetracosa-1(22),12,14,16(24),19(23),20-hexaen-2-one]
+++ (+++ is >60%) |  | Cc1cccc(C)c1-c1cc2nc(n1)NS(=O)(=O)c1cccc(c1)C(=O)N1[C@@H](c3cncc(N(C)C4CCC4)n3)CCC[C@@H](CC(C)C)[C@H]1CO2 (single isomer, unassigned) [Compound 402, 4-[6-[Cyclobutyl(methyl)amino]pyrazin-2-yl]-14-(2,6-dimethylphenyl)-8-isobutyl-18,18-dioxo-11-oxa-18λ^6-thia-3,15,17,24-tetrazatetracyclo[17.3.1.112,16.03,9]tetracosa-1(22),12,14,16(24),19(23),20-hexaen-2-one]
++ (++ is 30-60%) |  | Cc1cccc(C)c1-c1cc2nc(n1)NS(=O)(=O)c1cccc(c1)C(=O)N1[C@@H](c3ncc(OC(C)C)cn3)CCC[C@@H](O2)[C@H]1CC(C)C (single isomer, unassigned) [Compound 404, 12-(2,6-dimethylphenyl)-21-isobutyl-20-(5-isopropoxypyrimidin-2-yl)-8,8-dioxo-15-oxa-8λ^6-thia-1,9,11,22-tetrazatetracyclo[14.4.1.13,7.110,14]tricosa-3,5,7(23),10(22),11,13-hexaen-2-one]
+++ (+++ is >60%) |  | Cc1cccc(C)c1-c1cc2nc(n1)NS(=O)(=O)c1cccc(c1)C(=O)N1[C@@H](c3ncc(OC(C)C)cn3)CCC[C@@H](O2)[C@H]1CC(C)C (single isomer, unassigned) [Compound 405, 12-(2,6-Dimethylphenyl)-21-isobutyl-20-(5-isopropoxypyrimidin-2-yl)-8,8-dioxo-15-oxa-8λ^6-thia-1,9,11,22-tetrazatetracyclo[14.4.1.13,7.110,14]tricosa-3,5,7(23),10(22),11,13-hexaen-2-one]
+++ (+++ is >60%) |  | Cc1cccc(C)c1-c1cc2nc(n1)NS(=O)(=O)c1cccc(c1)C(=O)N1[C@@H](c3ncc(OC(C)C)cn3)CCC[C@@H](O2)[C@H]1CC(C)C (single isomer, unassigned) [Compound 408, 12-(2,6-Dimethylphenyl)-21-isobutyl-20-(5-isopropoxypyrimidin-2-yl)-8,8-dioxo-15-oxa-8λ^6-thia-1,9,11,22-tetrazatetracyclo[14.4.1.13,7.110,14]tricosa-3,5,7(23),10(22),11,13-hexaen-2-one]
+ (+ is <30+) |  | Cc1cccc(C)c1-c1cc2nc(n1)NS(=O)(=O)c1cccc(c1)C(=O)N1[C@@H](c3ncc(OC(C)C)cn3)CCC[C@@H](O2)[C@H]1CC(C)C (single isomer, unassigned) [Compound 409, 12-(2,6-dimethylphenyl)-21-isobutyl-20-(5-isopropoxypyrimidin-2-yl)-8,8-dioxo-15-oxa-8λ^6-thia-1,9,11,22-tetrazatetracyclo[14.4.1.13,7.110,14]tricosa-3,5,7(23),10(22),11,13-hexaen-2-one]
 | > 60 | Cc1cccc(C)c1-c1cc2nc(n1)NS(=O)(=O)c1cccc(c1)C(=O)N1[C@@H](c3cncc(N(C)C4CCC4)n3)CCC(O2)[C@H]1CC(C)C (single isomer, unassigned) [Compound 410]
 | 30 to 60 | Cc1cccc(C)c1-c1cc2nc(n1)NS(=O)(=O)c1cccc(c1)C(=O)N1C[C@@H](CCCC[C@@H]1c1ncc(OCc3ccccc3)cn1)O2 [Compound 416]
+ (+ is <30+) |  | Cc1cccc(C)c1-c1cc2nc(n1)NS(=O)(=O)c1cccc(c1)C(=O)N1C[C@@H](CCCC[C@@H]1c1ncc(OCc3ccccc3)cn1)O2 [Compound 417]
 | < 30 | Cc1cccc(C)c1-c1cc2nc(n1)NS(=O)(=O)c1cccc(c1)C(=O)N1[C@@H](c3ncc(OC(C)C)cn3)CC[C@@H](O2)[C@H]1CC(C)C [Compound 418]
